ChEMBL document CHEMBL4680375 (ACS Med Chem Lett, 2021)
Each block holds one compound with its values, some of them ahead of it. The source made the active and inactive calls. No cut-off for these calls is given here.

Key:
[1] = biological target: T1, NAD-dependent protein deacetylase sirtuin-3, mitochondrial (Homo sapiens, UniProt Q9NTG7); test: Inhibition of SIRT3 (unknown origin)
T1 sequence (Q9NTG7 whole entry): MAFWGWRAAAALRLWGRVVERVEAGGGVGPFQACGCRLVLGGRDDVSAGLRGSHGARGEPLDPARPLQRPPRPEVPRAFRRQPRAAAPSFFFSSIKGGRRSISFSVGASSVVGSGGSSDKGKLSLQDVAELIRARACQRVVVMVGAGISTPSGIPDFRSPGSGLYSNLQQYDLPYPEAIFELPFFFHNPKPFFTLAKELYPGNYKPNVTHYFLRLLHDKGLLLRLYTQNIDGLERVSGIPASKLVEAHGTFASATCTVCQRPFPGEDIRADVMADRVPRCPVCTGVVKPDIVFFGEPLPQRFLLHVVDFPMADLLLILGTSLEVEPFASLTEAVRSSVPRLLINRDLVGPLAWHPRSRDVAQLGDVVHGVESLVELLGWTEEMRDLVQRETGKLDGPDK

[2] = biological target: T2, NAD-dependent protein deacetylase sirtuin-1 (Homo sapiens, UniProt Q96EB6); test: Inhibition of N-terminal hexa-His-tagged human SIRT1 (156 to 664 residues) expressed in Escherichia coli BL21 (DE3) assessed as deacetylation of Abz-labeled acetyl peptide using Abz-GVLKacAYNO2GY-NH2 peptide as substrate incubated for 30 mins in presence of NAD+ by fluorescence microplate reader assay; conditions: read-out: IC50
T2 sequence (Q96EB6 whole entry): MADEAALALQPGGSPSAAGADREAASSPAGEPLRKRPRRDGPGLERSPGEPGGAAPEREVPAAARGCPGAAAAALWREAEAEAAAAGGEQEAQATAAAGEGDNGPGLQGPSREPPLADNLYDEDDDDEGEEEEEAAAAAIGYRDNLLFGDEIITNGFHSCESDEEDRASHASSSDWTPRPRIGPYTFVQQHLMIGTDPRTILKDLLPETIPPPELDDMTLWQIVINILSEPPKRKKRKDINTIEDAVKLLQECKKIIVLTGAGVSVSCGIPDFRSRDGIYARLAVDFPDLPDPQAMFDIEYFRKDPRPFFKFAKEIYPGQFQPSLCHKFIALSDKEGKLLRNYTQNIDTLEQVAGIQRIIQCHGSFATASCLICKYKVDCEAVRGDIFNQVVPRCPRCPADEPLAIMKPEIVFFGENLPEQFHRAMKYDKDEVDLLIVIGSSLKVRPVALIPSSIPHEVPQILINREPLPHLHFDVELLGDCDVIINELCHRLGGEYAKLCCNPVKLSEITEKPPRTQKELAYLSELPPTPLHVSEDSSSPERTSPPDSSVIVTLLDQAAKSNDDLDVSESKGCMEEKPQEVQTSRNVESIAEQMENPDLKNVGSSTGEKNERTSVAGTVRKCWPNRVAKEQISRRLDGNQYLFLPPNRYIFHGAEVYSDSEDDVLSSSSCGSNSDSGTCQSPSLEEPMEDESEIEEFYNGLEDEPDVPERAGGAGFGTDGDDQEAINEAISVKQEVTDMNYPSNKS

[3] = biological target: T3, NAD-dependent protein deacetylase sirtuin-2 (Homo sapiens, UniProt Q8IXJ6); test: Inhibition of GST-fusion tagged human SIRT2 (34 to 356 residues) expressed in Escherichia coli BL21 (DE3) using Abz-GVLKacAYNO2GY-NH2 peptide as substrate incubated for 30 mins in presence of NAD+ by fluorescence microplate reader assay
T3 sequence (Q8IXJ6 whole entry): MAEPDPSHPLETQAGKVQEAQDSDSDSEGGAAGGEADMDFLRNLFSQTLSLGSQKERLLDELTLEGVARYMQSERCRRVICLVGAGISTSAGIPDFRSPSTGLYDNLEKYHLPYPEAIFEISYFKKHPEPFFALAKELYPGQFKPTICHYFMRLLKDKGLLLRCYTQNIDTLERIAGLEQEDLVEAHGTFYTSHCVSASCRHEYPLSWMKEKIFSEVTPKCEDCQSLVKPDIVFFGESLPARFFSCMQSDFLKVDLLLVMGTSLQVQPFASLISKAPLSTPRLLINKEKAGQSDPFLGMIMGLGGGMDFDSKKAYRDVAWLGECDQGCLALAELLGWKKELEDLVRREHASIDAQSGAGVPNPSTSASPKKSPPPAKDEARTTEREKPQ

[4] = biological target: NAD-dependent protein deacylase sirtuin-5, mitochondrial (Homo sapiens, UniProt Q9NXA8); test: Inhibition of N-terminal 8His-tagged human SIRT5 (34 to 302 residues) expressed in Escherichia coli Rosetta2 (DE3) using Abz-GVLKacAYNO2GY-NH2 peptide as substrate incubated for 30 mins in presence of NAD+ by fluorescence microplate reader assay; conditions: read-out: IC50
Chain of NAD-dependent protein deacylase sirtuin-5, mitochondrial (Q9NXA8 whole entry, the tested form may be a part): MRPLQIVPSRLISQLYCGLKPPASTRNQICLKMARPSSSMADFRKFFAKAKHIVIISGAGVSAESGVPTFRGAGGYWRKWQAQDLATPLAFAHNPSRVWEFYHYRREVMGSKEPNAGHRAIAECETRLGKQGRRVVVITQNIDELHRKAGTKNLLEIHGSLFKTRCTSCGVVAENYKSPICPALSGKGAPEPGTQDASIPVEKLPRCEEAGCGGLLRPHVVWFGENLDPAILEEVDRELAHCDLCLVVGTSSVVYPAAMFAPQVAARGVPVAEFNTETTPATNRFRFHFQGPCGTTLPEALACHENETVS

[5] = biological target: NAD-dependent protein deacylase sirtuin-6 (Homo sapiens, UniProt Q8N6T7); test: Inhibition of recombinant N-terminal hexa-His-tagged SIRT6 (3 to 318 residues) (unknown origin) expressed in Escherichia coli BL21 (DE3) using RHKKac-AMC as substrate incubated for 2 hrs in presence of NAD+ by fluorescence microplate reader assay
Chain of NAD-dependent protein deacylase sirtuin-6 (Q8N6T7 whole entry, the tested form may be a part): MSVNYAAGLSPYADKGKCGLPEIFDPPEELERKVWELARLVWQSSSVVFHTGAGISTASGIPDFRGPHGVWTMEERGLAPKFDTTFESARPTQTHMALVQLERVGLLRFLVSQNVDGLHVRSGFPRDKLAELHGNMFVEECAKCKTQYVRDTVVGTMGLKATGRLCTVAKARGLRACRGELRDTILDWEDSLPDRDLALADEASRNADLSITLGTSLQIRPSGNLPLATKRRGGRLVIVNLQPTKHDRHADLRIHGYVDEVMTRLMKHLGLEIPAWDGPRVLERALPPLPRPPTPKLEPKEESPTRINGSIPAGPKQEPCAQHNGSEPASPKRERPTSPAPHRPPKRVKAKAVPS

[6] = biological target: T4, NAD-dependent protein deacetylase sirtuin-1 (Homo sapiens) (UniProt Q96EB6); test: Mixed-type inhibition of N-terminal hexa-His-tagged human SIRT1 (156 to 664 residues) expressed in Escherichia coli BL21 (DE3) assessed as decrease in initial velocity V0 at 0.47 to 1.98 uM using varying levels Abz-GVLKacAYNO2GY-NH2 peptide as substrate in presence of NAD+ by Lineweaver-burk plot analysis; conditions: dose 0.47-1.98 µM
T4 sequence (whole entry): T2 sequence (Q96EB6 whole entry)

[7] = biological target: T4, NAD-dependent protein deacetylase sirtuin-1 (Homo sapiens); test: Mixed-type inhibition of N-terminal hexa-His-tagged human SIRT1 (156 to 664 residues) expressed in Escherichia coli BL21 (DE3) assessed as decrease in Km at 0.47 to 1.98 uM using varying levels Abz-GVLKacAYNO2GY-NH2 peptide as substrate in presence of NAD+ by Lineweaver-burk plot analysis; conditions: dose 0.47-1.98 µM
[8] = biological target: T4, NAD-dependent protein deacetylase sirtuin-1 (Homo sapiens); test: Non-competitive inhibition of N-terminal hexa-His-tagged human SIRT1 (156 to 664 residues) expressed in Escherichia coli BL21 (DE3) assessed as decrease in initial velocity V0 at 0.47 to 1.98 uM using Abz-GVLKacAYNO2GY-NH2 as substrate in presence of varying level of NAD+ by Lineweaver-burk plot analysis; conditions: dose 0.47-1.98 µM
[9] = biological target: T4, NAD-dependent protein deacetylase sirtuin-1 (Homo sapiens); test: Non-competitive inhibition of N-terminal hexa-His-tagged human SIRT1 (156 to 664 residues) expressed in Escherichia coli BL21 (DE3) assessed as effect on Km at 0.47 to 1.98 uM using Abz-GVLKacAYNO2GY-NH2 as substrate in presence of varying level of NAD+ by Lineweaver-burk plot analysis; conditions: dose 0.47-1.98 µM
[10] = biological target: T2, NAD-dependent protein deacetylase sirtuin-1; test: Inhibition of wild type N-terminal hexa-His-tagged human SIRT1 (156 to 664 residues) expressed in Escherichia coli BL21 (DE3) assessed as dissociation equilibrium constant using Abz-GVLKacAYNO2GY-NH2 as substrate in presence of varying level of NAD+ by Lineweaver-burk plot analysis
[11] = biological target: NAD-dependent protein deacetylase sirtuin-1 (Homo sapiens, UniProt Q96EB6, F273L); test: Inhibition of N-terminal hexa-His-tagged human SIRT1 F273L mutant (156 to 664 residues) expressed in Escherichia coli BL21 (DE3) assessed as dissociation equilibrium constant using Abz-GVLKacAYNO2GY-NH2 as substrate in presence of varying level of NAD+ by Lineweaver-burk plot analysis
Chain of NAD-dependent protein deacetylase sirtuin-1 (Homo sapiens, UniProt Q96EB6, F273L) (Q96EB6 2-747 F273L limits assumed): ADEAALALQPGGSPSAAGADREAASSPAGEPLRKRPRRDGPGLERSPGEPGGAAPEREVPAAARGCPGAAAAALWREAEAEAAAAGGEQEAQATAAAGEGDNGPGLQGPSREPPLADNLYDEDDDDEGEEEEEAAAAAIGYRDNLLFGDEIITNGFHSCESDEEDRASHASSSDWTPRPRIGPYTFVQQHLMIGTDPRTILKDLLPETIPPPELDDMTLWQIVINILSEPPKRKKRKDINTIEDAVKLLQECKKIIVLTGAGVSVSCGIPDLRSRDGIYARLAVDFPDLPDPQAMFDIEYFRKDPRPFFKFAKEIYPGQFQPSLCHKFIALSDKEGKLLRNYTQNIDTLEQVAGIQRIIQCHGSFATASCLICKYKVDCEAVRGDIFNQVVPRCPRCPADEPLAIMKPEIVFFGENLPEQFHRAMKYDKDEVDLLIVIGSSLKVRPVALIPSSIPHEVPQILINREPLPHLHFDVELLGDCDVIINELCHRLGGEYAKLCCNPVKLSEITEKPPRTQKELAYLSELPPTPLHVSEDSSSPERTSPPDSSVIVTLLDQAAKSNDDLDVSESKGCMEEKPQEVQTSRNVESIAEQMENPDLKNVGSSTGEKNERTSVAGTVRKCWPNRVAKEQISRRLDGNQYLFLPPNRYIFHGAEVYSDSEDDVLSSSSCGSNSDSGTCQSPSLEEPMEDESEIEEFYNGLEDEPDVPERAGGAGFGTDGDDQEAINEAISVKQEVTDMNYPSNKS

[12] = biological target: NAD-dependent protein deacetylase sirtuin-1 (Homo sapiens, UniProt Q96EB6, N346A); test: Inhibition of N-terminal hexa-His-tagged human SIRT1 N346A mutant (156 to 664 residues) expressed in Escherichia coli BL21 (DE3) assessed as dissociation equilibrium constant using Abz-GVLKacAYNO2GY-NH2 as substrate in presence of varying level of NAD+ by Lineweaver-burk plot analysis
Chain of NAD-dependent protein deacetylase sirtuin-1 (Homo sapiens, UniProt Q96EB6, N346A) (Q96EB6 2-747 N346A limits assumed): as the sequence (Q96EB6 2-747 F273L limits assumed) above, with L272F, N345A counted along it

[13] = biological target: NAD-dependent protein deacetylase sirtuin-1 (Homo sapiens, UniProt Q96EB6, I347A); test: Inhibition of N-terminal hexa-His-tagged human SIRT1 I347A mutant (156 to 664 residues) expressed in Escherichia coli BL21 (DE3) assessed as dissociation equilibrium constant using Abz-GVLKacAYNO2GY-NH2 as substrate in presence of varying level of NAD+ by Lineweaver-burk plot analysis
Chain of NAD-dependent protein deacetylase sirtuin-1 (Homo sapiens, UniProt Q96EB6, I347A) (Q96EB6 2-747 I347A limits assumed): as the sequence (Q96EB6 2-747 F273L limits assumed) above, with L272F, I346A counted along it

[14] = Inhibition of N-terminal hexa-His-tagged human SIRT1 D348A mutant (156 to 664 residues) expressed in Escherichia coli BL21 (DE3) assessed as dissociation equilibrium constant using Abz-GVLKacAYNO2GY-NH2 as substrate in presence of varying level of NAD+ by Lineweaver-burk plot analysis
[15] = biological target: NAD-dependent protein deacetylase sirtuin-1 (Homo sapiens, UniProt Q96EB6, F414A); test: Inhibition of N-terminal hexa-His-tagged human SIRT1 F414A mutant (156 to 664 residues) expressed in Escherichia coli BL21 (DE3) assessed as dissociation equilibrium constant using Abz-GVLKacAYNO2GY-NH2 as substrate in presence of varying level of NAD+ by Lineweaver-burk plot analysis
Chain of NAD-dependent protein deacetylase sirtuin-1 (Homo sapiens, UniProt Q96EB6, F414A) (Q96EB6 2-747 F414A limits assumed): as the sequence (Q96EB6 2-747 F273L limits assumed) above, with L272F, F413A counted along it

[16] = biological target: T4, NAD-dependent protein deacetylase sirtuin-1 (Homo sapiens); test: Inhibition of SIRT1 in human SH-SY5Y cells assessed as increase in acetylated p53 level at 10 uM measured after 72 hrs in presence of ATRA by Western blot analysis; format: cell-based
[17] = biological target: T2, NAD-dependent protein deacetylase sirtuin-1; test: Inhibition of His-tagged SIRT1 (unknown origin) expressed in Escherichia coli codon plus (DE3) using acetylated p53 as substrate

- IC50 [1]: 22000 nM
Compound: CC1=CCC(C(=O)/N=C2\CC=C(S(=O)(=O)O)c3cc(S(=O)(=O)O)cc(S(=O)(=O)O)c32)=C/C1=N/C(=O)C1=CC=C/C(=N\C(=O)/N=C2\C=CC=C(C(=O)/N=C3/CC(C(=O)/N=C4\CC=C(S(=O)(=O)O)c5cc(S(=O)(=O)O)cc(S(=O)(=O)O)c54)=CC=C3C)C2)C1

- IC50 [2]: 1310 nM
- IC50 [3]: 54000 nM
- IC50 [4]: 19800 nM
- IC50 [5]: Not Active
- inhibition [6]: Active
- inhibition [7]: Active
- inhibition [8]: Active
- inhibition [9]: Active
- Ki [10]: 100 nM
- Ki [11]: 650 nM
- Ki [12]: 1940 nM
- Ki [13]: 710 nM
- Ki [15]: 18200 nM
- increase in acetylated p53 level (qualitative) [16]: Active
Compound: COc1cc(C=C2C(=O)OC(c3ccccc3)OC2=O)cc(Br)c1O (configuration not stated)
- Ki [14]: 7060 nM

- IC50 [17]: 100 nM
Compound: CCC(Sc1nnc2c(n1)[nH]c1ccccc12)C(=O)N1c2ccccc2Sc2ccccc21 (configuration not stated)
